# Assay results taken from patent US20230302131A1, “MPC INHIBITION FOR PRODUCING T-CELLS WITH A MEMORY PHENOTYPE” (UNIVERSITÉ DE LAUSANNE, priority 2020, published 2023).
# Tests used:
# OT2 CD4 T cells = assay: OT2 CD4 T cell co-culture with dendritic cells, CD62L by flow cytometry; type: cell-based, mouse; details: 75 μM; day 7; vs DMSO
# Method: Naïve CD4 T cells were isolated by negative selection (Stem Cell Technologies) from the spleen of OT2 mice. Dendritic cells were isolated from spleens of C57BL/6 mice by CD11c positive selection (Stem Cell Technologies). 2×10^5 CD4 T cells were co-cultured with 1×10^6 dendritic cells in RPMI medium supplemented with 10% FBS, 1% Penicillin/Streptomycin, 50 μM β-mercaptoethanol, 1% HEPES, 1× Non-essential amino acids (Gibco 11140-035), 2 mM L-glutamine and 1 mM Sodium Pyruvate. T cells were activated by adding 1 μg/ml Ovalbumine peptide (323-339, ISQAVHAAHAEINEAGR) and 100 IU/ml rhIL-2, in the presence of 75 μM UK5099 or DMSO. Cells were split on day 4 and re-cultured in fresh medium containing 100 IU/ml rhIL-2, in the presence of 75 μM UK5099 or DMSO.
# An experiment has been performed on mouse T cells in order to evaluate if MPC inhibition also promotes memory marker expression in CD4 T cells. As indicated in the experimental scheme (FIG. 5A), CD4 T cells from OT2 mice were activated by co-culture with dendritic cells. OT2 mice are transgenic for an […] recognizing specifically a chicken ovalbumine peptide 323-339 associated with the mouse MHC class II molecule I-Ab. We activated OT2 CD4 T cells by co-culture with dendritic cells loaded with […] of the ovalbumine peptide in the presence of 100 IU/ml recombinant human IL2 in the presence of 75 μM UK5099 or DMSO control. […]
# human CD4 T cells = assay: Human cord blood PBMC culture, CD62L in CD3-pos/CD8-neg (CD4) T cells; type: cell-based; details: 25 μM; day 11; vs DMSO
# Method: Peripheral blood mononuclear cells were isolated from fresh umbilical vein cord blood on a Percoll gradient. PBMCs were then cultured in RPMI supplemented with 10% human serum. 10^4 PBMC's were seeded per well in a round bottom 96-well plate and activated with anti-CD3/CD28 beads at a 1:2 cell:bead ratio and 300 U/ml rhIL-2, in the presence of 25 μM UK5099 or DMSO. Cells were regularly split and CD62L expression was determined by flow cytometry on day 11.
# CD62L expression in human CD4 T cells was also analyzed. Human cord blood PBMCs were cultured and activated as described before, in the presence of 25p M UK5099 or DMSO control. About 98% of the cells in culture on day 11 are CD3-positive. Since CD3 is exclusively expressed on CD4 and CD8 T cells, we can deduct that all CD3-positive, CD8-negative must be CD4 T cells. When analyzing the CD3-pos/CD8-neg population we observed that CD62L expression is increased upon MPCi treatment (FIG. 5D).
# adult human T cells = assay: Mitochondrial staining (MitoGreen, TMRM) of adult human T cells; type: cell-based; details: day 9; 25 μM; fold change compared to DMSO
# Method: FIG. 7: MPC inhibition during the activation and culture of adult human T cells induces a memory phenotype. (A) Experimental design. PBMCs were isolated from adult healthy volunteers and activated with anti-CD3/CD28 beads in the presence of DMSO or UK5099 (25 μM). Beads were removed at day 5 and T cell phenotype was analysed at day 9. (B) Percentage of CD8 T cells expressing the memory marker CD62L. (C) The mean fluorescent intensity of CD62L in the respective positive population. (D) Percentage of CD8 T cells expressing markers that allows their identification as stem cell memory T cells (TSCM). (E-F) Mitochonrial mass (identified by MitoGreen staining, E) and mitochondrial membrane potential (TMRM, F), measured by flow cytometry and expressed as fold change as compared to DMSO. (G) Mitochondrial membrane potential normalized for the mitochondrial mass, expressed as the ratio of […], fold change as compared to DMSO. Pooled data from 2 independant experiments. ns: non-significant, *p<0.05, **[…], ***p<0.001. Data represents mean±s.e.m.
# Heparinised blood was diluted with PBS and pipetted on top of Ficoll-paque (LymphoPrep). After centrifugation at 1800 rpm for 20 minutes at room temperature, the layer of cells at the intersection, containing the PBMCs was removed, washed and resuspended at 5×10^5 cells/ml of RPMI medium containing 8% human serum (AB serum), antibiotics, 2 mM L-Glutamine, 1% non-essential amino acids, 1 mM sodium pyruvate and 50 μM β-mercaptoethanol (all Gibco). Cells were activated with Human T-activator CD3/CD28 Dynabeads at a 1 bead/cell ratio with 150 IU/ml human recombinant IL2 and DMSO or 25 μM UK5099. Throughout the culture, cells were regularly split when necessary and beads were removed at day 5. At day 9, a fraction of the cells was stained with antibodies for flow cytometry analysis or for mitochondrial analysis.
# 2×10^5 cells were stained with 25 nM TMRM and 50 nM MitoGreen (Molecular Probes, Invitrogen) for 30 minutes in RPMI with 5% FCS at 37° C. […]
compound,measurement,setting,value
"N#CC(=Cc1cn(-c2ccccc2)c2ccccc12)C(=O)O [UK5099, 2-cyano-3-(1-phenyl-1H-indol-3-yl)-2-propenoic acid]",CD62L-positive population of mouse CD4 T cells,OT2 CD4 T cells,strong increase
same,CD62L expression in human CD3-pos/CD8-neg (CD4) T cells,human CD4 T cells,increased
same,mitochondrial membrane potential (TMRM),adult human T cells,significantly increased
same,mitochondrial membrane potential normalized for the mitochondrial mass,adult human T cells,more polarised mitochondria
same,total mitochondrial mass (MitoGreen),adult human T cells,did not impact
